Here are results for five molecules from patent publication US9512114B2, “Substituted aminopyrimidine compounds and methods of use” (Calitor Sciences, LLC, priority 2013, dated 2016).

Series [1] in a line: Pharmacokinetic profiles in rats. It is filed as in vivo, rat. The following applies: for Cl/F / AUC(0-t) / half-life / Vd: iv dosing 1 mg/kg; for F: oral vs iv (iv 1 mg/kg; p.o. generally 5 or 10 mg/kg); for AUC(0-t) / half-life / Vd: rat, plasma; for Vd: read-out: Vss. The method in brief: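 In rats, dogs and monkeys, IV dose was generally 1 or 2 mg/kg. Oral dose was generally 5 or 10 mg/kg in rats and 10 mg/kg in dogs and monkeys, given as solution, suspension or capsule. Plasma sampled over up to 24 h and analysed by LC/MS/MS.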

Series [2] deals with PI3K (p120γ) (h) (Homo sapiens (Human), UniProt P48736). As to the kind of experiment: PI3K (p120γ) (h) non-radioactive HTRF kinase assay. It is filed as biochemical. The note with it: performed at Millipore UK Ltd. The protocol:
(§1) The above assay procedure can be used to determine the IC50 for inhibition and/or the inhibition constant, Ki.
PI3K (p120γ) (h) [Non-Radioactive Assay]
(§2) PI3K (p120γ) (h) is incubated in assay buffer containing 10 μM phosphatidylinositol-4, 5-bisphosphate and MgATP (concentration as required). The reaction is initiated by the addition of the MgATP mix. After incubation for 30 minutes at room temperature, the reaction is stopped by the addition of stop solution containing EDTA and biotinylated phosphatidylinositol-3,4,5-trisphosphate. Finally, detection buffer is added, which contains europium-labelled anti-GST monoclonal antibody, GST-tagged GRP1 PH domain and streptavidin-allophycocyanin. The plate is then read in timeresolved fluorescence mode and the homogenous time-resolved fluorescence (HTRF) signal is determined according to the formula HTRF=10000×(Em665 nm/Em620 nm).
(§3) The kinase assays described herein were performed at Millipore UK Ltd, Dundee Technology Park, Dundee DD2 1SW, UK.
On the technique in general: In TR-FRET formats the signal depends on donor and acceptor labels being close together.

For series [3], the target named is PI3K (p110β/p85α) (h) (Homo sapiens (Human), UniProt P42338). Kind of series: PI3K (p110β/p85α) (h) non-radioactive HTRF kinase assay. It is filed as biochemical. The note with it: performed at Millipore UK Ltd. The protocol: as §1
PI3K (p110β/p85α) (h) [Non-Radioactive Assay]
as §2, with “([…])” for “(p120γ)”
as §3

A short description of series [4]: Compound stability in human liver microsomes. It is filed as in vitro ADME. The following applies: pH 7.4; for CLint scaled at 5 μM: liver microsomes, in vivo CLint extrapolated from human liver microsome incubation; for half-life at 5 μM: human liver microsomes 0.5 mg protein/mL, compound 5 μM, NADPH 1.0 mM, 37° C., read-out: Human T1/2. The method in brief: (§4)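 Human or rat liver microsomes (0.5 mg protein/mL) incubated with compound (5 μM) and NADPH (1.0 mM) in 100 mM potassium phosphate, pH 7.4, 0.05% DMSO, 37° C, sampled 0–60 min and quenched with cold acetonitrile. Remaining compound quantified by LC/MS/MS as % of time zero; CLint extrapolated.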

Series [5] in a line: Compound stability in rat liver microsomes. The following applies: pH 7.4; for CLint scaled at 5 μM: liver microsomes, in vivo CLint extrapolated from rat liver microsome incubation; for half-life at 5 μM: rat liver microsomes 0.5 mg protein/mL, compound 5 μM, NADPH 1.0 mM, 37° C., read-out: Rat T1/2. It is filed as in vitro ADME. The method in brief:
as §4

pIC50: −log10 of the molar value.

PI3K (p110β/p85α) (h), sequence (P42338 whole entry): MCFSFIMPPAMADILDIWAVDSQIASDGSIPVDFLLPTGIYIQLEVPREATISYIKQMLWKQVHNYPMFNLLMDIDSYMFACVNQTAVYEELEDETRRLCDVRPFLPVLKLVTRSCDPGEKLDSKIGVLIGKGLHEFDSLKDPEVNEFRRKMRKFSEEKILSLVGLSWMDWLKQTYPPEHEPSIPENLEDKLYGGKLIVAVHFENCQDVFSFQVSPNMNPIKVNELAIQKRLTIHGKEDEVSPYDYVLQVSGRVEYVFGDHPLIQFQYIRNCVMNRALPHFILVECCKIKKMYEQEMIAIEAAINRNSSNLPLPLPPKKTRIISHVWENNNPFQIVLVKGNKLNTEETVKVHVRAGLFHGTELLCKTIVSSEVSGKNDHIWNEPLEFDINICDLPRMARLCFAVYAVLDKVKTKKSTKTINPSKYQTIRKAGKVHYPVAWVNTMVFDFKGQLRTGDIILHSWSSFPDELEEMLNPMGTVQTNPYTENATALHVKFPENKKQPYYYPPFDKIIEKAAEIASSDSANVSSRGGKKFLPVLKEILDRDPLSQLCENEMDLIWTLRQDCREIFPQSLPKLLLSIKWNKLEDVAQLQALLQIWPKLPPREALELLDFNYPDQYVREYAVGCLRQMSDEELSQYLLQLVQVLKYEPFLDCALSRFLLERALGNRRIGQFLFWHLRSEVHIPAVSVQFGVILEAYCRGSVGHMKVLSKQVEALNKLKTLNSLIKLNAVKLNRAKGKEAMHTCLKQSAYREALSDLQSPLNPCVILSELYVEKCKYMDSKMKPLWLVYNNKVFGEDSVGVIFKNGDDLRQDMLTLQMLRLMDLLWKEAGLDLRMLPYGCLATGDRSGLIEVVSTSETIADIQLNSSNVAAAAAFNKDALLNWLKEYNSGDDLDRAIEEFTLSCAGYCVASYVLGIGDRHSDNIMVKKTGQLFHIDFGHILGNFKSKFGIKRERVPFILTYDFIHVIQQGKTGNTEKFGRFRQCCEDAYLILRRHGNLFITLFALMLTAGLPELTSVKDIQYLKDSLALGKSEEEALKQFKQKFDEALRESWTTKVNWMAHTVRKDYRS
PI3K (p110β/p85α) (h), sequence (P27986 whole entry partner): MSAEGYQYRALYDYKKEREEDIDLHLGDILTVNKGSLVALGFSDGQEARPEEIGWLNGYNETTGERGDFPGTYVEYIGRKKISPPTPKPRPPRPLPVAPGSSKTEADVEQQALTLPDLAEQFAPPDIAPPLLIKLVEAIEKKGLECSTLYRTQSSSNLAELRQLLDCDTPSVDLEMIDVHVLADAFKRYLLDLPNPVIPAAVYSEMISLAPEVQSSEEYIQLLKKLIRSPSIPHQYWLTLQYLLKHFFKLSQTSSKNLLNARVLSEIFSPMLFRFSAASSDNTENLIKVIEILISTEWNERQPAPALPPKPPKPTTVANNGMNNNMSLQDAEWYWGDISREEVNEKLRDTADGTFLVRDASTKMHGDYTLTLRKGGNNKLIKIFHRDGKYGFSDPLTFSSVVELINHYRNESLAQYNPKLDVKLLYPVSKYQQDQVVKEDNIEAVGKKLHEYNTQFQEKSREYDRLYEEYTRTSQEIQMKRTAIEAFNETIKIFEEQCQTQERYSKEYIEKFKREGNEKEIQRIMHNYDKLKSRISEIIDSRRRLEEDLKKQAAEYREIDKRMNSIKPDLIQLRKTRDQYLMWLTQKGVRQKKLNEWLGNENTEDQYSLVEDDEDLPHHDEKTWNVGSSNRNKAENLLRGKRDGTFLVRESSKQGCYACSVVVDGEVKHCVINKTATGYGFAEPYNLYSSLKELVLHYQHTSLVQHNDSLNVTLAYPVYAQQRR
PI3K (p120γ) (h), sequence (P48736 whole entry): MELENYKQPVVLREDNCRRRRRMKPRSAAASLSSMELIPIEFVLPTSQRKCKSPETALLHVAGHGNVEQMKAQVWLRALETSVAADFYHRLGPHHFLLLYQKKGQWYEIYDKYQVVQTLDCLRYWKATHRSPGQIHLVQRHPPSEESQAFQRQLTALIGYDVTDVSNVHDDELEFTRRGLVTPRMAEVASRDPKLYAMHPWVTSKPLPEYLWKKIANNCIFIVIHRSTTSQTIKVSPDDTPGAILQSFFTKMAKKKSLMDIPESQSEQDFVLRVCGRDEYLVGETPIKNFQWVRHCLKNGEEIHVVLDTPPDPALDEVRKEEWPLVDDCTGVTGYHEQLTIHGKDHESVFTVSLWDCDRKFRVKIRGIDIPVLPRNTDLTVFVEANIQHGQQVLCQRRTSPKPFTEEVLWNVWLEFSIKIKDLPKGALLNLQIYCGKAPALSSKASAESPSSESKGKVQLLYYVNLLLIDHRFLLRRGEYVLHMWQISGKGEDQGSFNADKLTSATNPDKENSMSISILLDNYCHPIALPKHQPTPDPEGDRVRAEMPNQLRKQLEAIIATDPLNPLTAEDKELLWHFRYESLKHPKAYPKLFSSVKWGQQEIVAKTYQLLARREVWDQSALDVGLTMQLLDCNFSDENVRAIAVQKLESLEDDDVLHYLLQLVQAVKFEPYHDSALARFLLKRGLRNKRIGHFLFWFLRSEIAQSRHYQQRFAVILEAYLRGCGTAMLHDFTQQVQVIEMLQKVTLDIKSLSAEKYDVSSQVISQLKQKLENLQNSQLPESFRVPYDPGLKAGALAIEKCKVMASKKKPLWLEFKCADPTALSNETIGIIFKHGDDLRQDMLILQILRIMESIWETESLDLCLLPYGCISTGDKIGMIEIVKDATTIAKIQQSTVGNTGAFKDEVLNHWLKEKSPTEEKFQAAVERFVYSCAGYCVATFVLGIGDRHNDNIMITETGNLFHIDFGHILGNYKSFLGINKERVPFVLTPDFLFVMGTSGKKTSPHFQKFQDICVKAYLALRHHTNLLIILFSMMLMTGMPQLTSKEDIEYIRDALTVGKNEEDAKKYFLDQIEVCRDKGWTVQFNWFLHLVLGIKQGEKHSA

In general, AUC(0-t) refers to exposure summed from dosing to a finite time, without extrapolation to infinity. Low readings indicate low exposure, high ones high exposure. For orientation: pIC50 means the negative decadic logarithm of the IC50, by convention in mol/L. As a reminder, the CLint scaled is the capacity of the preparation to metabolise the compound, expressed as a volume cleared per time. In series [1], `Cc1nnc(-c2c(N)ncnc2N[C@@H](C)c2cc3cccc(Cl)c3c(=O)n2C2CC2)o1` [Ex. 4, (S)-3-(1-((6-amino-5-(5-methyl-1,3,4-oxadiazol-2-yl)pyrimidin-4-yl)amino)ethyl)-8-chloro-2-cyclopropylisoquinolin-1(2H)-one] had a Cl/F of 33.3 mL/min/kg, an F of 78.78%, an AUC(0-t) of 498 ng·h/mL and a half-life of 58.8 min. The Vd in series [1] came out at 2.4 L/kg. In series [2], the pIC50 is 6.41. Also, the pIC50 in series [3] is 7.52. Further, in series [4], the CLint scaled at 5 μM is 85.3 mL/min/kg and the half-life at 5 μM worked out at 20.4 min. In series [5], the intrinsic metabolic clearance (CLint scaled) at 5 μM was 102 mL/min/kg and the half-life at 5 μM was found to be 24.4 min.

Consider `Cc1noc(-c2c(N)ncnc2N[C@@H](C)c2cc3cccc(Cl)c3c(=O)n2-c2ccccc2)n1` [Ex. 8, (S)-3-(1-((6-amino-5-(3-methyl-1,2,4-oxadiazol-5-yl)pyrimidin-4-yl)amino)ethyl)-8-chloro-2-phenylisoquinolin-1(2H)-one], for which, in series [1], the Cl/F was determined as 57.8 mL/min/kg, the F is 93.06%, the AUC(0-t) was determined as 291 ng·h/mL and the half-life was 55.2 min. For the same molecule, in series [1], the Vd stood at 1.94 L/kg. In addition, the pIC50 in series [2] was 7.13. Also, in series [4], the CLint scaled at 5 μM was 196 mL/min/kg and the half-life at 5 μM is 8.88 min. In addition, in series [5], the CLint scaled at 5 μM is 229 mL/min/kg and the half-life at 5 μM was 10.9 min.

In series [1], `Cc1nnc(-c2c(N)ncnc2N[C@@H](C)c2cc3cccc(Cl)c3c(=O)n2-c2ccccc2)o1` [Ex. 9, (S)-3-(1-((6-amino-5-(5-methyl-1,3,4-oxadiazol-2-yl)pyrimidin-4-yl)amino)ethyl)-8-chloro-2-phenylisoquinolin-1(2H)-one] had a Cl/F of 17.3 mL/min/kg, an F of 66.87%, an AUC(0-t) of 964 ng·h/mL and a half-life of 82.8 min. Further, in series [1], the Vd came out at 1.04 L/kg. For the same molecule, the pIC50 in series [2] was 6.59. In series [4], the intrinsic metabolic clearance (CLint scaled) at 5 μM was 83.7 mL/min/kg and the half-life at 5 μM turned out to be 20.8 min. For the same molecule, in series [5], the intrinsic clearance (CLint scaled) at 5 μM was 185 mL/min/kg and the half-life at 5 μM turned out to be 13.4 min.

Consider `Cc1nnc(-c2c(N)ncnc2N[C@@H](C)c2cc3cccc(-c4cnn(C)c4)c3c(=O)n2C2CC2)o1` [Ex. 25, (S)-3-(1-((6-amino-5-(5-methyl-1,3,4-oxadiazol-2-yl)pyrimidin-4-yl)amino)ethyl)-2-cyclopropyl-8-(1-methyl-1H-pyrazol-4-yl)isoquinolin-1 (2H)-one], for which, in series [1], the Cl/F came to 33.3 mL/min/kg, the F was 81.0%, the AUC(0-t) was determined as 497 ng·h/mL and the half-life was 79.2 min. In addition, the Vd in series [1] is 3.31 L/kg. Further, in series [2], the pIC50 is 6.49. The pIC50 in series [3] is 6.05. In addition, in series [4], the CLint scaled at 5 μM is 28.1 mL/min/kg and the half-life at 5 μM was 61.9 min. In series [5], the CLint scaled at 5 μM was 14.5 mL/min/kg and the half-life at 5 μM was 171 min.

In series [1], `Cc1noc(-c2c(N)ncnc2N[C@@H](C)c2cc3cccc(-c4cnn(C)c4)c3c(=O)n2C2CC2)n1` [Ex. 26, (S)-3-(1-((6-amino-5-(3-methyl-1,2,4-oxadiazol-5-yl)pyrimidin-4-yl)amino)ethyl)-2-cyclopropyl-8-(1-methyl-1H-pyrazol-4-yl)isoquinolin-1 (2H)-one] gave a Cl/F of 50.3 mL/min/kg, an F of 121.0%, an AUC(0-t) of 337 ng·h/mL and a half-life of 50.4 min. The Vd in series [1] turned out to be 3.14 L/kg. Also, the pIC50 in series [2] is 7.19. Further, the pIC50 in series [3] was 6.75. In series [4], the CLint scaled at 5 μM was 51.8 mL/min/kg and the half-life at 5 μM was found to be 33.6 min. Moreover, in series [5], the intrinsic metabolic clearance (CLint scaled) at 5 μM is 22.3 mL/min/kg and the half-life at 5 μM turned out to be 112 min.
